Patent publication US20240299486A1, “ADDRESSING INJECTION SITE REACTIONS ASSOCIATED WITH THE ADMINISTRATION OF ELAMIPRETIDE” (STEALTH BIOTHERAPEUTICS INC., priority 2022, published 2024)

What was measured:
[1] = biological target: T1, MRGPRX2 receptor (Homo sapiens, UniProt Q96LB1); test: Fluo-4 calcium assay in MRGPRX2 expressing Chem-1 cells; assay type: cell-based; settings: Chem-1 cells, Fluo-4
T1 construct: host or cells: Chem-1 cells (G418-selected)
T1 sequence (Q96LB1 1-330): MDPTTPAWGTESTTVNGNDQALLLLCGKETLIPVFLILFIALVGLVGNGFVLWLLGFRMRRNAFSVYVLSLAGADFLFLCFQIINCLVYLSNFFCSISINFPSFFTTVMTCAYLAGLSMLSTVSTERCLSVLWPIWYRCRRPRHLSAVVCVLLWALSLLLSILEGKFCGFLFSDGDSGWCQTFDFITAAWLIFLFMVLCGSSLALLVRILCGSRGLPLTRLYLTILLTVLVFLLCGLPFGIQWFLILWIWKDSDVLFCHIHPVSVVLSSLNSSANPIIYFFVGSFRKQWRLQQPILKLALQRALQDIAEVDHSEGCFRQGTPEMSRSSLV

[2] = system: control (non-MRGPRX2 expressing) Chem-1 cells; settings: parent Chem-1 cells, Fluo-4
Procedure: MRGPRX2 expressing and control (non-MRGPRX2 expressing) Chem-1 cells lines were obtained from Discovery Services, EuroFins. Cells were cultured in Dulbecco's Modified Eagle Medium (DMEM) high glucose medium (4.5 g/L) with 10% fetal bovine serum (FBS), non-essential amino acids, and N-2-hydroxyethylpiperazine-N′-2-ethanesulfonic acid (HEPES) buffer (pH 7.0-7.6). Geneticin (G418) was used for selection of MRGPRX2-expressing Chem-1 cells. Cells were maintained at 37° C. at 5% CO2. Cells were seeded to a glass bottom 96-well plates at a density of 50,000 per well (Cellvis). Cells were loaded with Fluo-4 AM for 30 minutes at 37° C. at a concentration of 2.5 μM. Cells were washed once with Dulbecco's phosphate buffered saline (DPBS). Cells were rested at room temperature for 30 minutes before use and washed with DPBS. Cells were resuspended in 50 μl phosphate buffered saline (PBS) with calcium and magnesium. […] Plates were read immediately with a Biotek plate reader. Readings were taken every 6 seconds for 2 minutes.

With `C[C@H](CCC(=O)O)C[C@H](C)C[C@H](C)C(=O)/C=C(\O)[C@H](C)C[C@H](C)C/C=C/[C@@H](C)[C@@H](O)[C@@H](C)[C@@H](O)C[C@@H]1CC[C@@](C)([C@H]2CC[C@@](C)([C@@H](C)O)O2)O1` [Ionomycin] the “activation of the MRGPRX2 expressing cells (calcium mobilization)” value [1] was “generates a calcium response” and the “effect on cells lacking the MRGPRX2 receptor (calcium mobilization)” value [2] was “generates a calcium response”.
